Consider 4 compounds from ChEMBL document CHEMBL5214890 (Eur J Med Chem, 2021).

The nature of data set [1]: MRT in male Sprague-Dawley rat at 25 nmol/kg, sc administered as single dose and measured after 24 hrs by LC-MS/MS analysis. Type of data set: ADME, organism-based. As to conditions: in vivo.
Data set [2] in a line: AUC (inifinity) in male Sprague-Dawley rat at 25 nmol/kg, sc administered as single dose and measured after 24 hrs by LC-MS/MS analysis. Further details: dose 25 nmol/kg, time 24 hrs, route sc. As to conditions: in vivo. It is filed as ADME, organism-based.
Data set [3] in a line: Toxicity in male […] assessed as decrease in hepatic lipid content at 40 nmol/kg, sc administered twice daily for 3 weeks. It is filed as organism-based. As to conditions: in vivo, 504 h.
Data set [4] concerns Mus musculus. Kind of data set: Antidiabetic activity in male […] assessed as increase in plasma FGF21 level at 30 nmol/kg, sc administered twice daily for 3 weeks. It is filed as functional, organism-based.
For data set [5], the system named is Mus musculus. Kind of data set: Antidiabetic activity in male […] assessed as decrease in serum LDL-C level at 30 nmol/kg, sc administered twice daily for 3 weeks. Type of data set: functional, organism-based.
The test system of data set [6] is Mus musculus. Kind of data set: Antidiabetic activity in male […] assessed as reduction in fasted glucose level at 30 nmol/kg, sc administered twice daily for 3 weeks. It is filed as functional, organism-based.
Data set [7] deals with Mus musculus. Kind of data set: Antidiabetic activity in male […] assessed as reduction in body weight at 30 nmol/kg, sc administered twice daily for 3 weeks. Type of data set: functional. Further details: scale not given: the % may be the effect or the level left.
The test system of data set [8] is Mus musculus. Kind of data set: Antidiabetic activity in male […] assessed as increase in plasma insulin level at 30 nmol/kg, sc administered twice daily for 3 weeks. It is filed as functional, organism-based.
Data set [9] in a line: Toxicity in male […] assessed as normalization of hepatic lipid content at 30 nmol/kg, sc administered twice daily for 3 weeks. It is filed as organism-based. As to conditions: in vivo, 504 h.
Data set [10] has as its system Mus musculus. Kind of data set: Antidiabetic activity in male […] assessed as increase in serum HDL/LDL ratio at 30 nmol/kg, sc administered twice daily for 3 weeks. It is filed as functional, organism-based.
In data set [11] the target is T1, Glucagon-like peptide 1 receptor (Homo sapiens, UniProt P43220). Kind of data set: Agonist activity at human GLP-1R expressed in HEK293 cells incubated for 30 mins and assessed as increase in cAMP accumulation measured by HTRF assay. It is filed as functional, cell-based.
T1 sequence (P43220 whole entry): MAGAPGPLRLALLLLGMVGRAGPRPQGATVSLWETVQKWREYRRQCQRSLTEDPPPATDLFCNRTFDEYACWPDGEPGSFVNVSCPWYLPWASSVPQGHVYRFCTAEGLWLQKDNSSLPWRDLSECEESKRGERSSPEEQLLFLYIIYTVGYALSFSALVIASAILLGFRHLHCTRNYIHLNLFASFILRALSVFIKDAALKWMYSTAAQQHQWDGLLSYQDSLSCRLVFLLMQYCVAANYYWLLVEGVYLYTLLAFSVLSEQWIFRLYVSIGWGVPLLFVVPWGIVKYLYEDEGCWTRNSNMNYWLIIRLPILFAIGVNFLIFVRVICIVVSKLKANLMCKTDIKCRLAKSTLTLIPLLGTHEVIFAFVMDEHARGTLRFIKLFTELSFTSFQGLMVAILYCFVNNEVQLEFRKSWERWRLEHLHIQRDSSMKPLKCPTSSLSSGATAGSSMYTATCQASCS
For data set [12], the target named is T1, Glucagon-like peptide 1 receptor. Kind of data set: Agonist activity at human GLP-1R expressed in HEK293 cells incubated for 30 mins and assessed as increase in cAMP accumulation measured by HTRF assay relative to control. It is filed as functional, cell-based. Set-up: concentration or dose not given beside the values. Background: Cyclic AMP is a second messenger, typically raised through Gs and lowered through Gi signalling.

The target of data set [13] is Glucagon receptor (Homo sapiens, UniProt P47871). Kind of data set: Agonist activity at human GCGR expressed in HEK293 cells incubated for 30 mins and assessed as increase in cAMP accumulation measured by HTRF assay. It is filed as functional, cell-based.
Sequence of Glucagon receptor (P47871 whole entry): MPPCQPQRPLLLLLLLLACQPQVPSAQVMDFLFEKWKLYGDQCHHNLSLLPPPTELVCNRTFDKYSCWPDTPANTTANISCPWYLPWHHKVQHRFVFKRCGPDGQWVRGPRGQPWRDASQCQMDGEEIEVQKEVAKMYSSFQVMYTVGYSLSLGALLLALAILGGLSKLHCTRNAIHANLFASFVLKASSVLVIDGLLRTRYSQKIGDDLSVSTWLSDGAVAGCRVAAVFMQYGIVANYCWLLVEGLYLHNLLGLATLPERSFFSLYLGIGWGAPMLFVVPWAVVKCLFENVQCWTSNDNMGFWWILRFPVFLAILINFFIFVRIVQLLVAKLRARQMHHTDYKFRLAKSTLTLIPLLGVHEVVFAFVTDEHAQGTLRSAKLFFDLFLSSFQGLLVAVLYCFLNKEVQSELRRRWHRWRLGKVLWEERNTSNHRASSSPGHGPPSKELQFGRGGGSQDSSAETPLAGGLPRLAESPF

Activity calls are given as the source filed them. The rule behind the calls is not given here. Where a SMILES comes first, the peptide text is derived from it. [ ]: non-standard residue; d: D form. ξ: configuration not given here. Thr(3ξ) = CC(O)[C@H](N)C(=O)O

A word on the MRT: it is a mean duration of stay, worked out from the concentration-time curve. The term AUC denotes concentration integrated over time. One may read the EC50 as the midpoint of the concentration-response curve.

In data set [1], `CCCCCCCCCCCCCCCC(=O)N[C@@H](CCC(=O)NCCCC[C@H](NC(=O)[C@H](C)NC(=O)[C@H](C)NC(=O)[C@H](CCC(N)=O)NC(=O)CNC(=O)[C@H](CCC(=O)O)NC(=O)[C@H](CC(C)C)NC(=O)[C@H](Cc1ccc(O)cc1)NC(=O)[C@H](CO)NC(=O)[C@H](CO)NC(=O)[C@@H](NC(=O)[C@H](CC(=O)O)NC(=O)[C@H](CO)NC(=O)[C@@H](NC(=O)[C@H](Cc1ccccc1)NC(=O)[C@@H](NC(=O)CNC(=O)[C@H](CCC(=O)O)NC(=O)[C@H](C)NC(=O)[C@@H](N)Cc1cnc[nH]1)[C@@H](C)O)[C@@H](C)O)C(C)C)C(=O)N[C@@H](CCC(=O)O)C(=O)N[C@@H](Cc1ccccc1)C(=O)N[C@H](C(=O)N[C@@H](C)C(=O)N[C@@H](Cc1c[nH]c2ccccc12)C(=O)N[C@@H](CC(C)C)C(=O)N[C@H](C(=O)N[C@@H](CCCNC(=N)N)C(=O)NCC(=O)N[C@@H](CCCNC(=N)N)C(=O)NCC(=O)O)C(C)C)[C@@H](C)CC)C(=O)O` returned an MRT of 6.6 h. The AUC at 24 h in data set [2] turned out to be 3410 ng·h/mL. The Activity entry in data set [3] is “Toxic”.

Turning to `CCCCCCCCCCCCCCCC(=O)N[C@@H](CCC(=O)N[C@@H](CCC(=O)NCCCC[C@H](NC(=O)[C@H](CC(=O)O)NC(=O)[C@H](CO)NC(=O)[C@@H](NC(=O)[C@H](Cc1ccccc1)NC(=O)[C@@H](NC(=O)CNC(=O)[C@H](CCC(N)=O)NC(=O)[C@H](CO)NC(=O)[C@@H](N)Cc1cnc[nH]1)[C@@H](C)O)[C@@H](C)O)C(=O)N[C@@H](CO)C(=O)N[C@@H](CCC(=O)O)C(=O)N[C@@H](Cc1ccc(O)cc1)C(=O)N[C@@H](CC(C)C)C(=O)N[C@@H](CC(=O)O)C(=O)N[C@@H](CO)C(=O)N[C@@H](CCC(=O)O)C(=O)N[C@@H](CCCNC(=N)N)C(=O)N[C@@H](C)C(=O)N[C@@H](CCCNC(=N)N)C(=O)N[C@@H](CC(=O)O)C(=O)N[C@@H](Cc1ccccc1)C(=O)N[C@H](C(=O)N[C@@H](C)C(=O)N[C@@H](Cc1c[nH]c2ccccc12)C(=O)N[C@@H](CC(C)C)C(=O)N[C@@H](CCC(=O)O)C(=O)N[C@@H](C)C(=O)NCC(=O)NCC(=O)O)C(C)C)C(=O)O)C(=O)O`, the result in data set [4], in [5], in [6], in data set [8] and in [10] was Active. For the same compound, the Activity in data set [7] is 26.4%; in [9], “Non-Toxic”.

In the case of `CC[C@H](C)[C@H](NC(=O)[C@H](Cc1ccccc1)NC(=O)[C@H](CC(=O)O)NC(=O)[C@H](CCC(N)=O)NC(=O)[C@H](C)NC(=O)[C@H](CCCNC(=N)N)NC(=O)[C@H](CCCNC(=N)N)NC(=O)[C@H](CO)NC(=O)[C@H](CC(=O)O)NC(=O)[C@H](CC(C)C)NC(=O)[C@H](Cc1ccc(O)cc1)NC(=O)[C@H](CCC(N)=O)NC(=O)[C@@H](NC(=O)[C@@H](NC(=O)[C@H](CC(=O)O)NC(=O)[C@H](CC(N)=O)NC(=O)[C@@H](NC(=O)[C@H](Cc1ccc(O)cc1)NC(=O)[C@@H](NC(=O)CNC(=O)[C@H](CCC(N)=O)NC(=O)[C@H](CO)NC(=O)[C@@H](N)Cc1c[nH]cn1)[C@@H](C)O)[C@@H](C)O)C(C)C)[C@@H](C)O)C(=O)N[C@@H](CCC(=O)O)C(=O)N[C@@H](Cc1c[nH]c2ccccc12)C(=O)N[C@@H](CC(C)C)C(=O)N[C@@H](CCSC)C(=O)N[C@@H](CC(N)=O)C(=O)N[C@H](C(N)=O)C(C)O` (stereo partly specified) (H-HSQGTYTNDVTQYLDSRRAQDFIEWLMN[Thr(3ξ)]-NH2), the EC50 is 0.73 nM in data set [11] and 0.43 nM in [13]. Besides, the Activity in data set [12] was determined as 5.6%.

As to “H-HSQGTYTNDVSKYLDSRRAQDFIEWLKNGGPSSGAPPPS-NH2”, the EC50 in data set [11] was 0.053 nM; in data set [13] it was 0.15 nM. Further, the Activity in data set [12] (filed as agonist) was 77.4%.
